Patent publication US20230355674A1, “DONOR T-CELLS WITH KILL SWITCH” (CSL Behring LLC, priority 2020, published 2023)
Entries after “also recorded” stand apart in the source; their conditions may differ.

Tests used:
K562 cells = assay: Negative selection with MTX, transduced or transfected K562 cells; assay type: cell-based, human; settings: 0.3 μM of MTX
Protocol: Transduced or transfected K562 cells (such as those from Example 1) were cultured with or without MTX from day 0 to day 14. The medium was refreshed every 3 to 4 days. GFP was analyzed on a flow machine and the InDel % was analyzed by T7E1 assay. […] On the other hand, the population of cells was steady without MTX. FIG. 14B illustrates that the transfected K562 cells were eliminated under treatment with 0.3 μM of MTX at a faster pace as compared with the HPRT-knockdown population.

CEM cells = assay: Negative selection with MTX or MPA, transduced or transfected CEM cells; assay type: cell-based; settings: 0.3 μM of MTX, day 0 to day 14
Protocol: Transduced or transfected CEM cells (such as those from Example 1) were cultured with or without MTX from day 0 to day 14. The medium was refreshed every 3 to 4 days. GFP was analyzed on flow machine and InDel % was analyzed by T7E1 assay.

[1] = MTX dose response in 6-TG selected CEM cells; assay type: cell-based; settings: human, wild type CEM T cell leukemia cells, 0.5 μM MTX, thymidine 16 μM, read-out: viable wild type (WT) cells
Protocol: CEM T cell leukemia cells modified by 8 guide RNAs targeting the HPRT1 gene were cultured for 1 week in the presence of 10 μM 6-TG, replenished with fresh 6-TG every 48-72 hours. Following the selection period and confirmation of HPRT protein reduction, the CEM cells were tested for their sensitivity to a dose range of […], methotrexate (MTX) for 3 days in the presence of thymidine 16 μM (T1895 Sigma).

HPRT1 gene [2] = assay: ICE scoring (indel, knockout score) of gRNA editing in CEM cells; assay type: cell-based, human
Text: The top candidate guide RNAs from Example 21 were screen in Jurkat cell lines (n=1) and validated in CEM cell lines (n=2). For instance, Jurkat cells were electroporated with a ribonucleoprotein (RNP) complex containing guide RNA (e.g. an RNP including a guide RNA having any one of SEQ ID NOS: 40-49) together with the Cas9 and tracrRNA. The methodology and analysis was the same for both Jurkat cell lines and CEM cell lines (see also, FIG. 37). Following electroporation, cell viability was measured at different concentrations of 6-TG (see FIG. 36).
(§1) Indel Percentage—The editing efficiency (percentage of the pool with non-wild type sequence) as determined by comparing the edited trace to the control trace. In the ICE algorithm, potential editing outcomes are proposed and fitted to the observed data using linear regression.
(§2) Knockout Score—Represents the proportion of cells that have either a frameshift or 21+bp indel. This score is a useful measure for those who are interested in understanding how many of the contributing indels are likely to result in a functional Knockout (KO) of the targeted gene.
(§3) CEM T cell leukemia cells were electroporated (1600V, 10 ms pulse width, 3 pulses by using the Neon Transfection system) with ribonucleoprotein (RNP) complexes containing guide RNA (see Example 21) designed in-house and obtained from Integrated DNA Technologies (IDT), together with Cas9 and tracrRNA. Cells confirmed to be transfected with the gRNA via the use of the tracr RNA (24 hours post electroporation) were purified using fluorescence activated cells sorting (FACS) prior to culture for a further 72 hours, followed by assessment of cell survival when challenged with increasing concentrations of 6-thioguanine (6-TG) compared to wild type (unmodified) CEM cells.

HPRT1 gene [3] = assay: ICE scoring (indel, knockout score) of gRNA editing in primary T cells; assay type: cell-based; settings: primary human T cells
Text: as §1, §2
FIG. 44 illustrates a method of modifying primary T-cells in accordance with one embodiment of the present disclosure. FIGS. 45A-45C illustrate 6-TG dose responses seven days following the modification of the primary T-cells in accordance with the modification methods described herein. In particular, FIGS. 45A and 45B illustrate the targeting of Exon 3 (guide RNA 13) and Exon 8 (guide RNA 21). The references “#9” and “#10” denote T-cell number and UT control (electroporated without RNP). […]
(§4) Peripheral blood mononuclear cells (PBMC) were isolated from Australian Red Cross Blood donor samples (n=2) via density centrifugation. […] By day 7, the original mixed PBMC population was determined to be primarily CD3+ T cells (flow cytometry; data not shown).

[4] = system: CEM T cell leukemia cells; assay: 6-TG dose response of gRNA modified CEM cells 72 hours after electroporation; assay type: cell-based; settings: 72 hours culture, 6-TG tested up to 40 μM, vs unmodified
Protocol: as §3

HPRT protein [5] = assay: Western blot of HPRT protein in gRNA modified CEM cells; assay type: cell-based, human
Protocol: as §3
Unmodified and modified CEM cells were also used for isolation of protein and detection of the HPRT protein using Western blot (FIG. 39, top panel). […] Actin protein detection (FIG. 39, bottom panel) was used as a protein loading control.
as §3, with “(gRNA; legend)” for “(see Example 21)”, “10 days in the presence” for “a further 72 hours, followed by assessment”, “10 uM 6-TG, replenished” for “cell survival when challenged”, “fresh 6-TG every 48-72 hours.” for “increasing concentrations of 6-thioguanine (6-TG) compared to wild type (unmodified) CEM cells.”
Following the selection period, protein was extracted from each cell and used for western blot-based detection of the HPRT protein. Detection of beta-actin was used as a protein loading control (Actin Antibody (ACTBD11B7): sc-81178. Santa Cruz).

[6] = system: CEM T cell leukemia cells; assay: 6-TG selection and 6-TG challenge of gRNA modified CEM cells (cell viability); assay type: cell-based; settings: CEM, 10 μM 6-TG for 1 week, vs wild-type
Protocol: Cells confirmed to be transfected with the gRNA via the use of the tracr RNA (24 hours post electroporation) were purified using fluorescence activated cells sorting (FACS) prior to culture in 10 μM 6-TG for 1 week replenished with fresh 6-TG every 48-72 hours.
After 10 days in the presence of 10 uM 6-TG, replenished with fresh 6-TG every 48-72 hours, each cell line was challenged with increasing concentrations of 6-thioguanine (6-TG) and cell viability was compared to wild type (unmodified) CEM cells (see FIG. 40B).

primary human T cells [7] = assay: 6-TG resistance of gRNA modified primary human T cells (viability); assay type: cell-based; settings: donors #9 and #10, 1 uM 6-TG, day 8 and day 13, vs unmodified
Text: FIG. 44 illustrates a method of modifying primary T-cells in accordance with one embodiment of the present disclosure. FIGS. 45A-45C illustrate 6-TG dose responses seven days following the modification of the primary T-cells in accordance with the modification methods described herein. In particular, FIGS. 45A and 45B illustrate the targeting of Exon 3 (guide RNA 13) and Exon 8 (guide RNA 21). The references “#9” and “#10” denote T-cell number and UT control (electroporated without RNP). FIG. 45C illustrates unmodified cells from donor #9 and donor #10 tested with increasing concentrations of 6-TG (day 4). It was observed that the […] primary T-cells were very sensitive to low doses of 6-TG. ICE Scores are shown below.
as §4
The cells were then cultured for about 7 and about 12 days in the presence of 1 uM 6-TG, with 6-TG replenished every about 2 to about 3 days. At each of these time points, the cells were assessed for the proportion of viable cells compared to untreated (UT) controls.

HPRT protein [8] = assay: Western blot of HPRT protein in gRNA modified primary T cells; assay type: cell-based, human; settings: 72 hours after electroporation
primary human T cells [9] = assay: MTX dose response in 6-TG selected primary human T cells; assay type: cell-based; settings: primary human T cells after 12 days 1 μM 6-TG, MTX dose range 2 days, thymidine 16 μM
Protocol: Primary human T cells modified using guide RNAs targeting the HPRT1 gene and subsequently placed under selection pressure for 12 days with 1 μM 6-TG, with 6-TG replenished every 2 to 3 days, were subjected to a dose range of MTX in the presence of thymidine 16 μM for 2 days and assessed for cell viability.

What does the source list for CN(Cc1cnc2nc(N)nc(N)c2n1)c1ccc(C(=O)N[C@@H](CCC(=O)O)C(=O)O)cc1 [MTX, methotrexate]?
GFP population of transduced (HPRT knockdown) K562 cells (K562 cells; day 0 to day 14): decreased; transfected (HPRT knockout) K562 cells (K562 cells; day 0 to day 14, compared with HPRT-knockdown population): eliminated; HPRT knockout population of CEM cells (CEM cells): eliminated at a faster pace; GFP population of transduced (HPRT knockdown) cells (CEM cells; CEM cells): decreased; viability at 3 days, 0.5 µM [1]: 60%

What does the source list for “gRNA 21: sgRNA guide and PAM TATCCTACAACAAACTTGTCTGG, HPRT 1 target Exon 8 (listed as DNA, chemistry not given here)”?
editing (ICE scoring), in words (HPRT1 gene [2]): efficient editing; knockout efficiency (ICE scoring) (HPRT1 gene [3]): about 1%; resistance to 6-TG challenge (cell survival) [4]: intermediate resistance; HPRT protein (Western blot) (HPRT protein [5]; 72 hours post-electroporation, no 6-TG selection, listed as guide 21): reduced compared to wildtype; also recorded: detectable levels of HPRT protein; HPRT protein (Western blot) (HPRT protein [5]; after 10 days of 6-TG selection (10 uM)): limited to no detectable levels of HPRT; cell viability under 6-TG selection [6]: more variable viability; proportion of viable cells under 6-TG (primary human T cells [7]): increased viability; HPRT protein (Western blot) (HPRT protein [8]): residual HPRT protein was observed; sensitivity to MTX compared to wild-type non-modified cells (UT) (primary human T cells [9]): increased sensitivity to MTX
